PubChem BioAssay AID268 (DTP/NCI, 2004)
Several values for one entry are separate records, joined by “and”; a condition that tells them apart may be missing. Equal values may be shown once.

System: CD2F1 mice, P1798 lymphosarcoma sc, tumor weight T/C
Experiment: NCI In Vivo Anticancer Drug Screen. Data for tumor model P1798 Lymphosarcoma (subcutaneous) in CD2F1 (CDF1) mice
Settings: endpoint: mean tumor weight, higher = larger tumour
Protocol: The antitumor activity of compounds was measured in mice bearing transplantable tumors. Survival or tumor size were measured and the results are expressed as the measurement made in the treated group (T) divided by the measurement made in the vehicle treated control group (C). The tumor model used in this assay is P1798 Lymphosarcoma (subcutaneous) in CD2F1 (CDF1) mice

[1] = dose: 12.5 mg/kg/injection, schedule: Q01DX010 (ip), vehicle: saline
[2] = dose: 25.0 mg/kg/injection, schedule: Q01DX010 (ip), vehicle: saline
[3] = dose: 50.0 mg/kg/injection, schedule: Q01DX010 (ip), vehicle: saline
[4] = dose: 100.0 mg/kg/injection, schedule: Q01DX010 (ip), vehicle: saline
[5] = dose: 10.0 mg/kg/injection, schedule: Q01DX010 (ip), vehicle: saline
[6] = dose: 20.0 mg/kg/injection, schedule: Q01DX010 (ip), vehicle: saline
[7] = dose: 62.5 mg/kg/injection, schedule: Q01DX010 (ip), vehicle: saline
[8] = dose: 250.0 mg/kg/injection, schedule: Q01DX010 (ip), vehicle: saline
[9] = dose: 200.0 mg/kg/injection, schedule: Q01DX010 (ip), vehicle: saline
[10] = dose: 400.0 mg/kg/injection, schedule: Q01DX010 (ip), vehicle: saline
[11] = dose: 125.0 mg/kg/injection, schedule: Q01DX010 (ip), vehicle: saline
[12] = dose: 500.0 mg/kg/injection, schedule: Q01DX010 (ip), vehicle: saline

SMILES: C[C@H]1C(=O)O[C@@H]2CCN3CC=C(COC(=O)[C@](C)(O)[C@@]1(C)O)[C@H]23
- T/C (dose: 3.13 mg/kg/injection, schedule: Q01DX010 (ip), vehicle: saline): 74 % of control and 79 % of control
- T/C (dose: 6.25 mg/kg/injection, schedule: Q01DX010 (ip), vehicle: saline): 77 % of control
- T/C [1]: 62 % of control and 80 % of control

SMILES: O=C(NCCCCC(NC(=O)c1ccccc1)C(=O)NCCCCCCCCCCNC(=O)C(CCCCNC(=O)c1ccccc1)NC(=O)c1ccccc1)c1ccccc1 (configuration not stated)
- T/C [1]: 85 % of control
- T/C [2]: 93 % of control
- T/C [3]: 86 % of control
- T/C [4]: 90 % of control

SMILES: CO[C@@]12[C@H](COC(N)=O)C3=C(C(=O)C(C)=C(N)C3=O)N1C[C@@H]1N[C@@H]12
- T/C (dose: 0.25 mg/kg/injection, schedule: Q01DX010 (ip), vehicle: saline): 85 % of control
- T/C (dose: 0.5 mg/kg/injection, schedule: Q01DX010 (ip), vehicle: saline): 61 % of control
- T/C (dose: 1.0 mg/kg/injection, schedule: Q01DX010 (ip), vehicle: saline): 36 % of control

SMILES: Cc1cc(N(CCCl)CCCl)ccc1N=Nc1ccccc1C(=O)O
- T/C (dose: 5.0 mg/kg/injection, schedule: Q01DX010 (ip), vehicle: saline): 72 % of control and 79 % of control
- T/C [5]: 16 % of control and 23 % of control
- T/C [6]: 10 % of control

SMILES: O=CN(O)CC(=O)O
- T/C [7]: 92 % of control and 67 % of control
- T/C [8]: 104 % of control and 108 % of control

SMILES: COc1cc([C@@H]2c3cc4c(cc3[C@H](O)[C@H]3COC(=O)[C@H]23)OCO4)cc(OC)c1OC
- T/C (dose: 0.9 mg/kg/injection, schedule: Q01DX011 (ip), vehicle: carboxymethylcellulose (CMC)): 56 % of control
- T/C (dose: 1.7 mg/kg/injection, schedule: Q01DX011 (ip), vehicle: carboxymethylcellulose (CMC)): 111 % of control
- T/C (dose: 2.2 mg/kg/injection, schedule: Q01DX011 (ip), vehicle: carboxymethylcellulose (CMC)): 80 % of control

SMILES: C=CCOc1ccc2c(c1)CC[C@@H]1[C@@H]2CC[C@]2(C)[C@@H](O)[C@@H](O)C[C@@H]12
- T/C (dose: 6.25 mg/kg/injection, schedule: Q01DX010 (sc), vehicle: steriod suspending solution): 98 % of control and 82 % of control
- T/C (dose: 12.5 mg/kg/injection, schedule: Q01DX010 (sc), vehicle: steriod suspending solution): 77 % of control and 88 % of control

SMILES: NC1(C(=O)O)CCCC1
- T/C (dose: 22.5 mg/kg/injection, schedule: Q01DX010 (ip), vehicle: saline): 40 % of control and 48 % of control
- T/C (dose: 45.0 mg/kg/injection, schedule: Q01DX010 (ip), vehicle: saline): 21 % of control and 38 % of control
- T/C (dose: 90.0 mg/kg/injection, schedule: Q01DX010 (ip), vehicle: saline): 4 % of control

SMILES: CC(=O)OC(C)(C)/C=C/C(=O)[C@](C)(O)[C@H]1[C@H](O)C[C@@]2(C)[C@@H]3CC=C4[C@@H](C=C(O)C(=O)C4(C)C)[C@]3(C)C(=O)C[C@]12C
- T/C (dose: 0.15 mg/kg/injection, schedule: Q01DX009 (ip), vehicle: saline with Tween-80): 100 % of control
- T/C (dose: 0.3 mg/kg/injection, schedule: Q01DX009 (ip), vehicle: saline with Tween-80): 84 % of control
- T/C (dose: 0.4 mg/kg/injection, schedule: Q01DX011 (ip), vehicle: carboxymethylcellulose (CMC)): 84 % of control
- T/C (dose: 0.6 mg/kg/injection, schedule: Q01DX009 (ip), vehicle: saline with Tween-80): 92 % of control
- T/C (dose: 0.8 mg/kg/injection, schedule: Q01DX011 (ip), vehicle: carboxymethylcellulose (CMC)): 95 % of control
- T/C (dose: 1.6 mg/kg/injection, schedule: Q01DX011 (ip), vehicle: carboxymethylcellulose (CMC)): 115 % of control
- T/C (dose: 3.2 mg/kg/injection, schedule: Q01DX011 (ip), vehicle: carboxymethylcellulose (CMC)): 47 % of control

SMILES: O=C(NCCCCCCNC(=O)OCc1ccccc1)OCc1ccccc1
- T/C [3]: 102 % of control
- T/C [4]: 119 % of control
- T/C [9]: 94 % of control
- T/C [10]: 123 % of control

SMILES: CC(=O)NCCCCCCNCCCCCCNC(C)=O
- T/C [3]: 99 % of control
- T/C [4]: 92 % of control
- T/C [9]: 102 % of control
- T/C [10]: 80 % of control

SMILES: Oc1cc(CN(CCCl)CCCl)c(O)cc1CN(CCCl)CCCl
- T/C (dose: 0.63 mg/kg/injection, schedule: Q01DX010 (ip), vehicle: saline): 71 % of control and 86 % of control
- T/C (dose: 1.25 mg/kg/injection, schedule: Q01DX010 (ip), vehicle: saline): 64 % of control and 88 % of control
- T/C (dose: 2.5 mg/kg/injection, schedule: Q01DX010 (ip), vehicle: saline): 42 % of control and 64 % of control

SMILES: O=c1cn[nH]c(=O)[nH]1
- T/C [7]: 111 % of control and 89 % of control
- T/C [11]: 97 % of control
- T/C [8]: 62 % of control and 80 % of control
- T/C [12]: 80 % of control

SMILES: CCOC(N)=O
- T/C [11]: 95 % of control
- T/C [8]: 64 % of control
- T/C [12]: 23 % of control

SMILES: O=C(Nc1ccc(C2=NCCN2)cc1)c1ccc(C(=O)Nc2ccc(C3=NCCN3)cc2)cc1
- T/C (dose: 16.0 mg/kg/injection, schedule: Q01DX010 (ip), vehicle: saline): 76 % of control
- T/C (dose: 32.0 mg/kg/injection, schedule: Q01DX010 (ip), vehicle: saline): 77 % of control
- T/C (dose: 64.0 mg/kg/injection, schedule: Q01DX010 (ip), vehicle: saline): 73 % of control
- T/C (dose: 128.0 mg/kg/injection, schedule: Q01DX010 (ip), vehicle: saline): 47 % of control

SMILES: COc1ccc2c(c1OC)C(=O)O[C@@H]2[C@H]1c2c(cc3c(c2OC)OCO3)CCN1C
- T/C (dose: 15.6 mg/kg/injection, schedule: Q01DX010 (ip), vehicle: saline): 107 % of control
- T/C (dose: 31.3 mg/kg/injection, schedule: Q01DX010 (ip), vehicle: saline): 78 % of control
- T/C [11]: 97 % of control
- T/C [8]: 78 % of control

SMILES: S=P(N1CCOCC1)(N1CC1)N1CC1
- T/C [5]: 50 % of control and 75 % of control
- T/C [6]: 24 % of control

SMILES: CCn1cnc2c(=S)nc[nH]c21
- T/C [7]: 96 % of control and 79 % of control

SMILES: [N-]=[N+]=CC(=O)CCC(N)C(=O)O (configuration not stated)
- T/C (dose: 0.01 mg/kg/injection, schedule: Q01DX010 (ip), vehicle: saline): 102 % of control
- T/C (dose: 0.03 mg/kg/injection, schedule: Q01DX010 (ip), vehicle: saline): 89 % of control
- T/C (dose: 0.05 mg/kg/injection, schedule: Q01DX010 (ip), vehicle: saline): 100 % of control
- T/C (dose: 0.1 mg/kg/injection, schedule: Q01DX010 (ip), vehicle: saline): 108 % of control

SMILES: COc1cc(-c2ccc(Nc3ccccc3C(=O)O)c(OC)c2)ccc1N
- T/C [6]: 82 % of control
- T/C (dose: 40.0 mg/kg/injection, schedule: Q01DX010 (ip), vehicle: saline): 52 % of control

SMILES: COc1cc(-c2ccc(Nc3ccccc3C(=O)O)c(OC)c2)ccc1Nc1ccccc1C(=O)O
- T/C [1]: 61 % of control
- T/C [2]: 53 % of control and 57 % of control
- T/C [3]: 12 % of control and 30 % of control

SMILES: CCN(CC)CCNc1ccc(C)c2sc3ccccc3c(=O)c12
- T/C [1]: 76 % of control
- T/C [2]: 31 % of control and 43 % of control
- T/C [3]: 10 % of control and 29 % of control
- T/C [4]: 10 % of control
